Data on 20 molecules can be found in patent publication US6338955B2, “β1-4 N-acetylglucosaminyltransferase and gene encoding” (Kirin Beer Kabushiki Kaisha, priority 1996, dated 2002).

A word on the Km: it is the concentration of substrate that gives half-maximal velocity.

The target in experiment [1] is T1, GnT-IV (Bos taurus, UniProt O77836).
T1 construct: it is thought that GnT-IV from bovine small intestine is a glycoprotein having at least Asn-linked sugar chains; from tissue; host or cells: bovine small intestine (microsome fraction, Triton X-100 solubilized, purified to Sample 7)
T1 sequence (O77836 1-535): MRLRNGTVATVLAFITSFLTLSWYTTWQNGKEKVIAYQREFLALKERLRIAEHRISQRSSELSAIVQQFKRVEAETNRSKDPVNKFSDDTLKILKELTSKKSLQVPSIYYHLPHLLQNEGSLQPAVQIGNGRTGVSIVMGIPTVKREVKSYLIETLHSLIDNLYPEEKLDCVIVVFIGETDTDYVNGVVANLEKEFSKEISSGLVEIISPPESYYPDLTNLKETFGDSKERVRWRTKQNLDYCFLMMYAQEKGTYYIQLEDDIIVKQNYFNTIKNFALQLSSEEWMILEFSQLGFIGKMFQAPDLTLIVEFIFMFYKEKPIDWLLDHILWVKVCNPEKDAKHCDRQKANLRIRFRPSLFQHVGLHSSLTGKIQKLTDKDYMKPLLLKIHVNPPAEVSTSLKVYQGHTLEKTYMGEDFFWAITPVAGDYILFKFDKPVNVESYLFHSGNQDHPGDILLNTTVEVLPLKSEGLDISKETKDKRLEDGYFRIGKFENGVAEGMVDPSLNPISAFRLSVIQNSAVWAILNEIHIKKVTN
The experiment in a line: Action of GnT-IV on glycoproteins (UDP-[14C]GlcNAc, SDS-PAGE and fluorography). It counts as biochemical, bovine. Particulars: 37° C., 20 hours; FIG. 17 Panel B lanes 2 and 5. The procedure: GnT-IV reaction conditions: To 10 μl of a solution containing […] of GnT-IV, a substrate glycoprotein equivalent to 1.6 nmol of biantennary type sugar chains (for fetuin alone, the sugar chain content was 1.6 nmol) and 450 nCi of UDP-[^14C] […] One tenth of the resultant solution was analyzed by SDS-PAGE and fluorography.
For SDS-PAGE, 10-20% gradient gel (Daiichi Kagaku) was used. For fluorography, Amplify (Amersham) was used to expose the samples to X ray film for 20 hours.
GlcNAc as a sugar donor. Then, the reaction products were analyzed by SDS-PAGE and fluorography (Panels A and B, FIG. 17). As shown in lanes 2 and 5 of Panel B in FIG. 17, transfer of [^14 C] GlcNAc to asialo agalacto human transferrin and asialo agalacto, CHO cell-derived recombinant human erythropoietin.

The target of experiment [2] is T2, GnT-IV (Bos taurus, UniProt O77836).
T2 construct: it is thought that GnT-IV from bovine small intestine is a glycoprotein having at least Asn-linked sugar chains; from tissue; host or cells: bovine small intestine (microsome fraction, Triton X-100 solubilized, purified to Sample 7)
T2 sequence (O77836 93-535 limits assumed): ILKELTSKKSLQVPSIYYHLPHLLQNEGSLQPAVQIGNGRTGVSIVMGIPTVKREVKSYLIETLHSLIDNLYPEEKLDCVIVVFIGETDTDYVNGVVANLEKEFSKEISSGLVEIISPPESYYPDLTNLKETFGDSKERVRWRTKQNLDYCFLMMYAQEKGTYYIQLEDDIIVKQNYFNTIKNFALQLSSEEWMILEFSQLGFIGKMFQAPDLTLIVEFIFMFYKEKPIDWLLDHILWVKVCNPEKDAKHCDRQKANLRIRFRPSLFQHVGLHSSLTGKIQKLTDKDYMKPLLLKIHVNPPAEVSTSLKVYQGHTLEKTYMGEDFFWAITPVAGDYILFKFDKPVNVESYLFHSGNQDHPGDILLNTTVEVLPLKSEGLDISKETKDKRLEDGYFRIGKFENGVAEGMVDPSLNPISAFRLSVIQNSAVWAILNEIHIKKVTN
The experiment in a line: Specific assay for GnT-IV activity (pyridylaminated oligosaccharide acceptor, HPLC) with purified enzyme. The following applies: for Activity (%), Inhibition of GnT-IV by Nucleotides: nucleotide 2 mM in the presence of 0.5 mM UDP-GlcNAc, nothing added = 100%. Type of experiment: biochemical, bovine. The method, then:
Then, the reaction was terminated by boiling the solution for 2 minutes. […] The fluorescence of pyridylamino groups was detected using excitation at 320 nm and emission at 400 nm.

Setting [3] is: additive 10 mM added to GnT-IV sample freed of metal ions, activity with 10 mM MnCl2 = 100%.

Entries after “also recorded” stand apart in the source; their conditions may differ. Where two headings read alike, the source gives them in different places.

For the molecule “asialo agalacto human transferrin: human transferrin treated with sialidase and β-galactosidase; glycoprotein substrate”, the “Transfer of [14C]GlcNAc to glycoprotein by GnT-IV” value in experiment [1] is “transfer of [^14 C] GlcNAc”.

For `O=c1ccn([C@@H]2O[C@H](CO)[C@@H](O)[C@H]2O)c(=O)[nH]1` [Uridine], in experiment [2], the “Inhibition of GnT-IV by nucleotides / UDP derivatives” value was “little inhibitory effect; also recorded: do not have inhibitory effect” and the “Activity (%), Inhibition of GnT-IV by Nucleotides” value (shortened to “Activity (%), Inhibition of GnT-IV”) came to 115%. In the case of `O=c1ccn([C@@H]2O[C@H](COP(=O)(O)OP(=O)(O)OP(=O)(O)O)[C@@H](O)[C@H]2O)c(=O)[nH]1` [UTP], the “Activity (%), Inhibition of GnT-IV” value in experiment [2] is on record as 88.2%. For `Nc1ccn([C@@H]2O[C@H](COP(=O)(O)OP(=O)(O)O)[C@@H](O)[C@H]2O)c(=O)n1` [CDP], in experiment [2], the “Inhibition of GnT-IV by nucleotides / UDP derivatives” value was “little inhibitory effect; also recorded: do not have inhibitory effect” and the “Activity (%), Inhibition of GnT-IV” value is 112%. The matching figures for `O=c1ccn([C@@H]2O[C@H](COP(=O)(O)O)[C@@H](O)[C@H]2O)c(=O)[nH]1` [UMP]: “little inhibitory effect” and 97.3%. Regarding `[Cl][Fe][Cl]` [FeCl2], the “Requirement of divalent cation: effect of additive on activity” value (from here on “Requirement of divalent cation”) in experiment [2] was “Weak effect”. Besides, in experiment [2] (setting [3]), the “Activity (%), Divalent Cation Requirement of GnT-IV” value worked out at 9.8%. As for `[Cl][Cu][Cl]` [CuCl2], the “Activity (%), Divalent Cation Requirement of GnT-IV” value in experiment [2] (setting [3]) worked out at 0%. Turning to `O=C(O)[C@H]1O[C@H](OP(=O)(O)OP(=O)(O)OC[C@H]2O[C@@H](n3ccc(=O)[nH]c3=O)[C@H](O)[C@@H]2O)[C@H](O)[C@@H](O)[C@@H]1O` [UDP-glucuronic acid], in experiment [2], the “Activity (%), Inhibition of GnT-IV” value is 92.3%. Take `[Ca+2].[Cl-].[Cl-]` [CaCl2]: the “Requirement of divalent cation” value in experiment [2] is “Weak effect”. Further, in experiment [2] (setting [3]), the “Activity (%), Divalent Cation Requirement of GnT-IV” value is listed as 7.2%. As for `CC(=O)N[C@H]1[C@@H](OP(=O)(O)OP(=O)(O)OC[C@H]2O[C@@H](n3ccc(=O)[nH]c3=O)[C@H](O)[C@@H]2O)O[C@H](CO)[C@@H](O)[C@@H]1O` [UDP-GlcNAc], the Km in experiment [2] (GnT-II product type oligosaccharide as receptor substrate, conditions (i)/Reference Example 2, read-out: Km toward UDP-GlcNAc) amounted to 220 µM. Turning to `[Cl-].[Cl-].[Mg+2]` [MgCl2], the “Activity (%), Divalent Cation Requirement of GnT-IV” value in experiment [2] (setting [3]) amounted to 72.5%.

On to `O=c1ccn([C@@H]2O[C@H](COP(=O)(O)OP(=O)(O)O)[C@@H](O)[C@H]2O)c(=O)[nH]1` [UDP], for which, in experiment [2], the “Inhibition of GnT-IV by nucleotides / UDP derivatives” value was “inhibited the activity of this enzyme most strongly” and the “Activity (%), Inhibition of GnT-IV” value stood at 27.3%. For `OCC(O)CO` [glycerol], in experiment [2], the “Stabilization of the enzyme” value was “Stabilizing effect is recognized”.

As to `[Cl][Mn][Cl]` [MnCl2], in experiment [2], the “Requirement of divalent cation” value is recorded as “greatest effect”. The “Activity (%), Divalent Cation Requirement of GnT-IV” value in experiment [2] (setting [3]) is recorded as 100%. As to `NCCCCCCOP(=O)(O)OP(=O)(O)OCC1OC(n2ccc(=O)[nH]c2=O)C(O)C1O` (centres unmarked) [UDP-hexanolamine], the “Activity (%), Inhibition of GnT-IV” value in experiment [2] is recorded as 73.6%.

Consider `CC(=O)N[C@H]1[C@@H](OP(=O)(O)OP(=O)(O)OC[C@H]2O[C@@H](n3ccc(=O)[nH]c3=O)[C@H](O)[C@@H]2O)O[C@H](CO)[C@H](O)[C@@H]1O` [UDP-N-acetylgalactosamine], for which, in experiment [2], the “Activity (%), Inhibition of GnT-IV” value stood at 59.7%. With `Cc1cn([C@H]2C[C@H](O)[C@@H](COP(=O)(O)OP(=O)(O)O)O2)c(=O)[nH]c1=O` [TDP], in experiment [2], the “Inhibition of GnT-IV by nucleotides / UDP derivatives” value is given as “little inhibitory effect; also recorded: do not have inhibitory effect” and the “Activity (%), Inhibition of GnT-IV” value is 110%. On to `[Cl-].[Cl-].[Co+2]` [CoCl2], for which, in experiment [2], the “Activity (%), Divalent Cation Requirement of GnT-IV” value amounted to 74.8% and the “Effect of divalent cation relative to that of Mn2+” value was “about 70%”.

Take `O=c1ccn([C@H]2C[C@H](O)[C@@H](COP(=O)(O)OP(=O)(O)O)O2)c(=O)[nH]1` [2′-deoxy-UDP]: the “Activity (%), Inhibition of GnT-IV” value in experiment [2] was determined as 67.4%. Take “asialo agalacto, CHO cell-derived recombinant human erythropoietin: recombinant human erythropoietin with high biantennary sugar chain content treated with sialidase and β-galactosidase”: the “Transfer of [14C]GlcNAc to glycoprotein by GnT-IV” value in experiment [1] was “transfer of [^14 C] GlcNAc”.
